Where a name gives a salt, the structure may show the parent alone. Read-outs that look alike come from different tables or passages of the source.
Legend:
SARS-CoV-2 [1] = assay: microbe, parasite or virus in culture; type: cell-based; settings: for Emax: Severe acute respiratory syndrome coronavirus 2, HeLa-ACE2, 24 h, read-out: HeLa-ACE2 CoV-2 Sinf Average; for EC50: read-out: HeLa-ACE2 CoV-2 EC50 GeoMean; for HeLa-ACE2 SI: selectivity index, uninfected HeLa-ACE2 CC50 / SARS-CoV-2 EC50
HepG2 [2] = settings: human, 72 h
HeLa-ACE2 cells [3] = assay: Total cell count in the HeLa-ACE2 TOA (time of addition) assay; type: cell-based, human; settings: for EC50: Homo sapiens, HeLa-ACE2, read-out: HeLa-ACE2 TOA cell count EC50 GeoMean
SARS-CoV-2 [4] = type: cell-based; settings: combination with remdesivir
SARS-CoV-2 [5] = assay: microbe, parasite or virus in culture; type: cell-based; settings: for Emax: Severe acute respiratory syndrome coronavirus 2, HeLa-ACE2, 10 h, read-out: HeLa-ACE2 TOA CoV-2 Sinf Average; for EC50: read-out: HeLa-ACE2 TOA CoV-2 EC50 GeoMean
[6] = Uninfected HeLa-ACE2 24 h live/dead cytotoxicity counter screen; type: cell-based, human; settings: human, uninfected HeLa-ACE2 cells; read-out: HeLa-ACE2 uninfected cytotoxicity CC50 GeoMean
HeLa-ACE2 cells [7] = assay: as above; type: cell-based, human; settings: human, uninfected HeLa-ACE2 cells, 24 h
HEK293T [8] = settings: human, 72 h
SARS-CoV-2 [9] = assay: microbe, parasite or virus in culture; type: cell-based; settings: for Emax: Severe acute respiratory syndrome coronavirus 2, Calu-3, 48 h, read-out: Calu-3 CoV-2 Sinf Average; for EC50: read-out: Calu-3 CoV-2 EC50 GeoMean; for Calu-3 SI: selectivity index, uninfected Calu-3 CC50 / SARS-CoV-2 EC50
HeLa-ACE2 cells [10] = assay: cells; settings: Homo sapiens; for EC50: HeLa-ACE2, read-out: HeLa-ACE2 cell count EC50 GeoMean; for Emax: HeLa-ACE2, 24 h, read-out: HeLa-ACE2 cell count Sinf Average
in vitro = settings: human, Calu-3 uninfected cytotoxicity CC50 GeoMean
Calu-3 cells [11] = settings: for Calu-3 uninfected cytotoxicity Sinf Average: human, 48 h
Calu-3 cells [12] = assay: cells; settings: Homo sapiens; for EC50: Calu-3, read-out: Calu-3 cell count EC50 GeoMean; for Emax: Calu-3, 48 h, read-out: Calu-3 cell count Sinf Average
[13] = HepG2 72 h CellTiter-Glo cytotoxicity; settings: human, HepG2 cells
HepG2 [14] = assay: HepG2 72 h CellTiter-Glo cytotoxicity; settings: 72 h
[15] = HEK293T 72 h CellTiter-Glo cytotoxicity; settings: human, HEK293T cells
HEK293T [16] = assay: HEK293T 72 h CellTiter-Glo cytotoxicity; settings: 72 h
[17] = Uninfected Calu-3 48 h Cell-Titer Glo cytotoxicity counter screen; settings: human, uninfected Calu-3 cells, Calu-3 uninfected cytotoxicity CC50 GeoMean
Calu-3 cells [18] = assay: as above; settings: human, uninfected Calu-3 cells, 48 h
[19] = Severe acute respiratory syndrome coronavirus 2, HeLa-ACE2, detail column
[20] = Severe acute respiratory syndrome coronavirus 2, Calu-3
[21] = Severe acute respiratory syndrome coronavirus 2, HeLa-ACE2
[22] = Severe acute respiratory syndrome coronavirus 2, Calu-3, detail column

| Compound | Emax (SARS-CoV-2 [1]) [%] | EC50 (SARS-CoV-2 [1]; [19]) [µM] | HeLa-ACE2 SI (SARS-CoV-2 [1]) | HepG2 72-hour cytotoxicity Sinf Average (HepG2 [2]) [%] | EC50 (HeLa-ACE2 cells [3]) [µM] | HeLa-ACE2 synergy score with remdesivi (SARS-CoV-2 [4]) | TOA:HeLa-ACE2 EC50 Ratio (SARS-CoV-2 [5]) | Emax (SARS-CoV-2 [5]) [%] | CC50 at 24 h [6] [µM] | HeLa-ACE2 uninfected cytotoxicity Sinf Average (HeLa-ACE2 cells [7]) [%] | HEK293T 72-hour cytotoxicty Sinf Average (HEK293T [8]) [%] | Emax (SARS-CoV-2 [9]) [%] | EC50 (HeLa-ACE2 cells [10]) [µM] | CC50 at 48 h (in vitro) [µM] | uninfected Calu-3 CC50 (Calu-3 cells [11]) | Calu-3 uninfected cytotoxicity Sinf Average (Calu-3 cells [11]) [%] | EC50 (Calu-3 cells [12]) [µM] | EC50 (SARS-CoV-2 [5]; [21]) [µM] | EC50 (SARS-CoV-2 [9]; [22]) [µM] | Emax (HeLa-ACE2 cells [10]) [%] | also measured |
| --- | --- | --- | --- | --- | --- | --- | --- | --- | --- | --- | --- | --- | --- | --- | --- | --- | --- | --- | --- | --- | --- |
| CCN(CC)CCCNc1ccnc2cc(Cl)ccc12 [AQ-13] | 101 | 0.8 | 32.34 | -100 | > 9.61 | -1.765 δ | 12.002 | 100 | 25.9 | -100 | -100 | 100 | > 9.6 | > 29.3 | > 29.255 ×÷ 1.046 (n=4) μM | -100 | > 9.98 | – | – | – | EC50 (SARS-CoV-2 [5]; [19]): > 9.61 µM; EC50 (SARS-CoV-2 [9]; [20]): > 9.98 µM |
| CC(C)Oc1ccc(-c2nc(-c3cccc4c3CC[C@@H]4NCCO)no2)cc1C#N [Ozanimod] | 101 | 2.63 | > 5.60 | -103 | > 9.59 | -4.622 δ | 2.748 | 100 | > 14.7 | -101 | -100 | 97 | > 8.74 | 13.3 | 13.319 ×÷ 1.347 (n=3) μM | -100 | > 9.98 | > 7.24 | > 7.74 | 100 | Calu-3 SI (SARS-CoV-2 [9]): < 1.72; Emax (Calu-3 cells [12]): 100% |
| Cc1c(-c2ccc(O)cc2)n(Cc2ccc(OCCN3CCCCCC3)cc2)c2ccc(O)cc12 [Bazedoxifene acetate] | 100 | – | – | – | > 9.59 | – | – | 100 | > 20.7 | – | – | 94 | > 8.59 | – | – | – | > 9.98 | > 4.47 | – | 100 | EC50 (SARS-CoV-2 [1]; [21]): 2.89 µM; CC50 at 72 h [13]: 3.21 µM; HepG2 72-hour cytotoxicity Sinf Average (HepG2 [14]): -99%; CC50 at 72 h [15]: 9.19 µM; HEK293T 72-hour cytotoxicty Sinf Average (HEK293T [16]): -106%; EC50 (SARS-CoV-2 [9]; [20]): > 7.73 µM; CC50 at 48 h [17]: 10.6 µM |
| CCCCC1CCc2cc(O)cc3c(CCN4CCN(c5cc(C)ccn5)CC4)c(C)n1c23 (stereo not drawn) [KC 11404] | 100 | 2.5 | > 8.39 | -101 | > 9.59 | -2.817 δ | 0.864 | 100 | > 20.9 | -100 | -100 | 100 | > 9.59 | 12.8 | 12.778 ×÷ 1.123 (n=3) μM | -100 | > 9.98 | 2.16 | 8.02 | 100 | HeLa-ACE2 TOA cell count Sinf Average (HeLa-ACE2 cells [3]): 100%; Calu-3 SI (SARS-CoV-2 [9]): 1.59 |
| OC(CNCC(O)C1CCc2cc(F)ccc2O1)C1CCc2cc(F)ccc2O1 (stereo not drawn) [Nebivolol HCl] | 99 | 2.96 | > 3.75 | – | > 4.56 | – | 0.619 | 98 | > 11.1 | -103 | – | 100 | > 9.12 | – | – | – | > 9.98 | 1.83 | > 8.69 | 100 | CC50 at 72 h [13]: 7.62 µM; HepG2 72-hour cytotoxicity Sinf Average (HepG2 [14]): -99%; HeLa-ACE2 TOA cell count Sinf Average (HeLa-ACE2 cells [3]): 70%; CC50 at 72 h [15]: 5.57 µM; HEK293T 72-hour cytotoxicty Sinf Average (HEK293T [16]): -106%; Calu-3 SI (SARS-CoV-2 [9]): < 1.57; CC50 at 48 h [17]: 13.6 µM; Calu-3 uninfected cytotoxicity Sinf Average (Calu-3 cells [18]): -100% |
| Nc1nc(Nc2ccc3c(c2)CC[C@@H](N2CCCC2)CC3)nn1-c1cc2c(nn1)-c1ccccc1CCC2 [BGB324] | 98 | 1.2 | 13.05 | -105 | > 9.59 | 7.223 δ | 7.782 | 100 | 15.7 | -101 | -102 | 100 | > 9.15 | 19 | 19.024 ×÷ 1.18 (n=3) μM | -100 | 6.27 | > 9.35 | 6.94 | 100 | Calu-3 SI (SARS-CoV-2 [9]): 2.74; Emax (Calu-3 cells [12]): 100% |
